Experiments:
[1] = test system: IMR90 lung fibroblast cells; experiment: Cell growth/death assay (4 h exposure, wash-out, 3 days drug free); format: cell-based, human; details: IMR90, 10 μM for 4 h, washed, 3 days drug free media (FIG. 3C)
Experimental: (3A) A549 non-small cell lung cancer cells were treated with XJB-OMe, 3-hydroxy-β-lapachone (14), or XJB-lapachone (18) at indicated concentrations for 24 h. Cell viability was determined by a CellTiter-Blue assay. Data represents the mean±SEM. (3B) PEO1 ovarian cancer cells, MDA-MB-231 breast cancer cells, and 983B melanoma cells were treated with XJB-lapachone (18) at indicated concentrations for 24 h. Cell viability was determined by a CellTiter-Blue assay. Data represents the mean±SEM. (3C) Equal numbers of A549 and IMR90 lung fibroblast cells were treated with 10 μM XJB-lapachone (18) for 4 h. XJB-lapachone was then washed away and cells were incubated in drug free media for 3 days. Cell viability was determined by a CellTiter-Blue assay. (3D) A549 cells were treated with XJB-OMe, 3-hydroxy-β-lapachone (14), or XJB-lapachone (18) at 6 μM concentrations for 20 h. […] Apoptotic and necrotic cell death were determined by Annexin V and PI staining. […]
Cell viability and apoptosis assays: Cell viability was determined using a CellTiter-Blue Cell Viability Assay (Promega, Madison, Wis.). The survival fractions were calculated after setting untreated control cells at 100%. An FITC Annexin V Apoptosis Detection Kit (BD PharMingen, San Diego, Calif.) was used to quantify apoptotic cells and necrotic cells, according to the manufacturer's instructions. […]

A549 cells [2] = experiment: ROS generation by DCF-DA and MitoSox, flow cytometry; format: cell-based; details: for ROS generation (DCF) / mitochondrial ROS generation (MitoSox): A549, 6 μM, 16 h, flow cytometry (FIG. 4A)
Experimental: (§1) (4A) A549 cells were treated with XJB-OMe, 3-hydroxy-β-lapachone (14), or XJB-lapachone (18) at 6 μM for 16 h. The generation of ROS was determined by staining cells with MitoSox and DCFHDA. The fluorescence intensity was measured by flow cytometry. Data represents the mean±S.D. of triplicates. (4B) A549 cells were treated as described in A, and the oxygen consumption rate was determined by a Seahorse extracellular flux analyzer. […] (4C) A549 cells were treated as described in A, and mitochondria morphology was examined by electron microscopy. Representative images are shown. (4D) A549 cells were treated as described above. The expression of the autophagy marker LC3 was examined by western blot. β-actin was used as a loading control. Representative images are shown.
Determination of ROS generation: To measure intracellular generation of ROS, cells were incubated with 5 μM DCF-DA (Sigma) for 20 min at 37° C. after drug exposure. To measure mitochondrial generated ROS, cells were incubated with 5 μM of MitoSox (Invitrogen) for 20 min at 37° C. After wash with PBS, cells were trypsinized and suspended in HBSS containing 1% BSA. The fluorescence intensity of DCF and MitoSox were analyzed using an Accuri C6 flow cytometer (BD Accuri Cytometers, Ann Arbor, Mich.).
A549 non-small cell lung cancer cells (high NQO1) and MDA-MB-231 triple negative breast cancer cells (NQO1 deficient) were treated as indicated in FIG. 6. Mitochondrial ROS generation was determined by MitoSox followed by flow cytometry, essentially as described above.

A549 cells [3] = experiment: Oxygen consumption rate, Seahorse extracellular flux analysis; format: cell-based; details: A549, 6 μM, 16 h, Seahorse (FIG. 4B)
Experimental: as §1
Extracellular flux (XF) analysis: Oxygen consumption rate (OCR) was measured using a Seahorse XF96 Extracellular Flux Analyzer (Seahorse Bioscience, North Billerica, Mass.), as previously described (Qian W, et al., Alterations in bioenergetics due to changes in mitochondrial DNA copy number. Methods 2010 51:452-457). Briefly, A549 cells were plated in a 6-well plate and treated with compounds for 16 h. After treatment, cells were trypsinized, counted, and plated at 40,000 cells per well in a XF96 microplate using Cell-Tak cell adhesive. OCR measurements were then performed using a XF96 analyzer.

DNA damage signaling = experiment: Western blot of DNA damage signaling activation; format: cell-based; details: A549, western blot after treatment (FIG. 9)
Experimental: Western blot was performed […] after treatment to examine the activation of DNA damage signaling. Antibodies used in the Western Blot were β-actin (AC-15) and ATM (MAT3-4G10/8) (from Sigma); Chk1 (2G1D5), phospho-Chk2 (Thr68) (C13C1), Chk2 (1C12) (from Cell Signaling Technology); phospho-Chk1 (Ser317) (from R&D systems); and phospho-ATM (S1981) (from Epitomics).

MDA-MB-231 rho0 cells = experiment: Celltiter-blue cell viability in rho0 cells; format: cell-based; details: MDA-MB-231 rho0 cells (mtDNA depleted), increasing concentrations, 24 h (FIG. 8)
Experimental: MDA-MB-231 parental and rho0 cells (established by long-term culture of parental MDA-MB-231 cells in the presence of 50 ng/ml ethidium bromide) were treated with increasing concentrations of XJB-lapachone for 24 h. Cell viability was determined by Celltiter-blue.

[4] = test system: MDA-MB-231 breast cancer cells; experiment: CellTiter-Blue cell viability assay, 24 h treatment; format: cell-based; details: MDA-MB-231 cells (NQO1 deficient), indicated concentrations, 24 h (FIG. 3B)
Experimental: (§2) (3A) A549 non-small cell lung cancer cells were treated with XJB-OMe, 3-hydroxy-β-lapachone (14), or XJB-lapachone (18) at indicated concentrations for 24 h. Cell viability was determined by a CellTiter-Blue assay. Data represents the mean±SEM. (3B) PEO1 ovarian cancer cells, MDA-MB-231 breast cancer cells, and 983B melanoma cells were treated with XJB-lapachone (18) at indicated concentrations for 24 h. Cell viability was determined by a CellTiter-Blue assay. Data represents the mean±SEM. (3C) Equal numbers of A549 and IMR90 lung fibroblast cells were treated with 10 μM XJB-lapachone (18) for 4 h. XJB-lapachone was then washed away and cells were incubated in drug free media for 3 days. Cell viability was determined by a CellTiter-Blue assay. (3D) A549 cells were treated with XJB-OMe, 3-hydroxy-β-lapachone (14), or XJB-lapachone (18) at 6 μM concentrations for 20 h. The formation of vacuoles was examined by phase contrast microscopy. Representative images are shown. (3E) A549 cells were treated as described above. Apoptotic and necrotic cell death were determined by Annexin V and PI staining. Representative images are shown.
(§3) Cell culture: A549 non-small cell lung cancer cells and MDA-MB-231 breast carcinoma cells were obtained from American Type Culture Collection (ATCC). Ovarian cancer cells PEO1 were kindly provided by Dr. Karyn J. Hansen (Magee-Womens Hospital of UPMC). 983B melanoma cells were kindly provided by Dr. Stergios J. Moschos (University of North Carolina). IMR90 normal lung fibroblast cells were kindly provided by Dr. Christopher Bakkenist (University of Pittsburgh Cancer Institute). Cells were cultured in either RPMI 1640 or DMEM media supplemented with 10% heat-inactivated fetal calf serum and 1% penicillin-streptomycin in 5% CO2 at 37° C.
(§4) Cell viability and apoptosis assays: Cell viability was determined using a CellTiter-Blue Cell Viability Assay (Promega, Madison, Wis.). The survival fractions were calculated after setting untreated control cells at 100%. An FITC Annexin V Apoptosis Detection Kit (BD PharMingen, San Diego, Calif.) was used to quantify apoptotic cells and necrotic cells, according to the manufacturer's instructions.
(§5) In order to investigate the cellular toxicity of 18 (XJB-lapachone), A549 nonsmall cell lung cancer cells were treated with various concentrations of XJB-lapachone for 24 h, and compared its effect with XJB-OMe (the mitochondrial targeting moiety) and unconjugated 3-hydroxy-β-lapachone (14). […] Furthermore, XJB-lapachone is also effective against other types of tumor cells, including PEO1 ovarian cancer cells, MDA-MB-231 breast cancer cells, and 983B melanoma cells (FIG. 3B). […] Tumor selectivity of β-lapachone, and whether the same is maintained after XJB conjugation, was examined. The cytotoxic effect of XJB-lapachone on A549 lung cancer and non-transformed human lung fibroblast cells IMR90 was determined by a cell growth/death assay.

[5] = test system: A549 non-small cell lung cancer cells; experiment: as above; format: cell-based; details: various concentrations, CellTiter-Blue (FIG. 3A)
Experimental: as §2, §3, §4, §5

Structure (SMILES): CC(C)C[C@@H](/C=C/[C@H](Cc1ccccc1)C(=O)N1CCC[C@H]1C(=O)N[C@H](C(=O)N[C@@H](CCCNC(=O)OCc1ccccc1)C(=O)NCCC(=O)OC1CC2=C(OC1(C)C)c1ccccc1C(=O)C2=O)C(C)C)NC(=O)OC(C)(C)C (stereo partly drawn) [XJB-lapachone, 2,2-Dimethyl-5,6-dioxo-3,4,5,6-tetrahydro-2H-benzo[h]chromen-3-yl 3-((S)-2-((S)-2-((S)-1-((2S,5S,E)-2-benzyl-5-((tert-butoxycarbonyl)amino)-7-methyloct-3-enoyl)pyrrolidine-2-carboxamido)-3-methylbutanamido)-5-(((benzyloxy)carbonyl)amino)pentanamido) propanoate]
- cell viability after four-hour exposure (toxic effect on non-transformed cells) [1]: toxic effect was less prominent
- mitochondrial ROS generation (MitoSox), dose and time dependence (A549 cells [2]; A549 (high NQO1) (FIG. 6)): Induces Mitochondrial ROS Generation in a Dose and Time Dependent Manner
- ROS generation (DCF) (A549 cells [2]): dramatic increase of ROS generation
- mitochondrial ROS generation (MitoSox) (A549 cells [2]): dramatic increase of ROS generation
- ROS generation (DCF) (A549 cells [2]; listed as 18): stronger than unconjugated 3-hydroxy-β-lapachone
- mitochondrial ROS generation (MitoSox) (A549 cells [2]; listed as 18): stronger than unconjugated 3-hydroxy-β-lapachone
- inhibition of mitochondrial respiration (oxygen consumption) by oligomycin after treatment (A549 cells [3]): can no longer be inhibited by oligomycin
- activation of DNA damage signaling (DNA damage) (DNA damage signaling): induces DNA damage
- induction of cell death in rho0 cells (cell viability) (MDA-MB-231 rho0 cells): effective in inducing cell death in rho0 cells
- cell viability [4]: effective
- cell viability / cytotoxic effect ([5]; listed as XJB-Lapachone): superior compared to unconjugated β-lapachone
- cell viability / cytotoxic effect ([5]; listed as XJBLapachone): reduced cell viability in a dose dependent manner
